From patent US20250230138A1, “COMPOUNDS HAVING A T-STRUCTURE FORMED BY AT LEAST FOUR CYCLES FOR USE IN THE TREATMENT OF CANCER AND OTHER INDICATIONS” (TheRas, Inc., priority 2022, published 2025)
Where two headings read alike, the source gives them in different places.

Legend:
[1] = target: KRAS-PI3Kα interaction (KRAS-Q25A binding to avi-tagged full length PI3Kα) (Homo sapiens (Human), UniProt P42336); assay: Disrupting KRAS-PI3Kα interaction by SPR inhibition assay; conditions: KRAS-Q25A at 20 μM, 25° C.
Chain of KRAS-PI3Kα interaction (KRAS-Q25A binding to avi-tagged full length PI3Kα) (P42336 whole entry, looked up, stated change not applied): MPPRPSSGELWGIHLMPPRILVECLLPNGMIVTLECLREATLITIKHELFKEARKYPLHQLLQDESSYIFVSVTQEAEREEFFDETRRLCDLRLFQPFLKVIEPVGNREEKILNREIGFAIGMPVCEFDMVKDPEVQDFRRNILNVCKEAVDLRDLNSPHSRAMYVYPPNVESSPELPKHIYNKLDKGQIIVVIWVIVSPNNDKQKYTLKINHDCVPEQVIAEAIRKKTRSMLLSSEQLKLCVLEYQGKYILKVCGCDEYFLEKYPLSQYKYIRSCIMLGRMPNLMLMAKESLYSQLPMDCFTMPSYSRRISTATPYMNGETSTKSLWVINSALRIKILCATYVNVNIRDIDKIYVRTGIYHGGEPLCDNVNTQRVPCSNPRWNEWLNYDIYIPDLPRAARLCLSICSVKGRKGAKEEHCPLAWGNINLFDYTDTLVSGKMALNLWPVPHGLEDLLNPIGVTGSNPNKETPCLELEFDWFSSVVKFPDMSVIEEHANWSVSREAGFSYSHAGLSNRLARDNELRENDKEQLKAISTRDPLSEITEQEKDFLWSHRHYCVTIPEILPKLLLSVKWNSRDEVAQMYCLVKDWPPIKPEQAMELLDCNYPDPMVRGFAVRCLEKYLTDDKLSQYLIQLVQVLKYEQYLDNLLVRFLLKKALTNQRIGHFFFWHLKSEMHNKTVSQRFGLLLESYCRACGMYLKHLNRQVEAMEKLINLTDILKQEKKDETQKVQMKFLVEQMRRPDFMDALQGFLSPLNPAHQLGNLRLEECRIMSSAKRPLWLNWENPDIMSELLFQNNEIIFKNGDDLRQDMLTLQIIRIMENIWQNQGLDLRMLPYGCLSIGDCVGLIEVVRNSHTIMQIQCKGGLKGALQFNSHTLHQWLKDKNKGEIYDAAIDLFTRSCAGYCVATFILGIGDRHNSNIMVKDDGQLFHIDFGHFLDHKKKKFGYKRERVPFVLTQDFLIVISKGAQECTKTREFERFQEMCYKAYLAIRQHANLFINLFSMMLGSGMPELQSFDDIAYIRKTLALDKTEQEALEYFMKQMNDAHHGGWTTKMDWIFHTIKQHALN
Chain of KRAS-PI3Kα interaction (KRAS-Q25A binding to avi-tagged full length PI3Kα) (P27986 whole entry partner, looked up): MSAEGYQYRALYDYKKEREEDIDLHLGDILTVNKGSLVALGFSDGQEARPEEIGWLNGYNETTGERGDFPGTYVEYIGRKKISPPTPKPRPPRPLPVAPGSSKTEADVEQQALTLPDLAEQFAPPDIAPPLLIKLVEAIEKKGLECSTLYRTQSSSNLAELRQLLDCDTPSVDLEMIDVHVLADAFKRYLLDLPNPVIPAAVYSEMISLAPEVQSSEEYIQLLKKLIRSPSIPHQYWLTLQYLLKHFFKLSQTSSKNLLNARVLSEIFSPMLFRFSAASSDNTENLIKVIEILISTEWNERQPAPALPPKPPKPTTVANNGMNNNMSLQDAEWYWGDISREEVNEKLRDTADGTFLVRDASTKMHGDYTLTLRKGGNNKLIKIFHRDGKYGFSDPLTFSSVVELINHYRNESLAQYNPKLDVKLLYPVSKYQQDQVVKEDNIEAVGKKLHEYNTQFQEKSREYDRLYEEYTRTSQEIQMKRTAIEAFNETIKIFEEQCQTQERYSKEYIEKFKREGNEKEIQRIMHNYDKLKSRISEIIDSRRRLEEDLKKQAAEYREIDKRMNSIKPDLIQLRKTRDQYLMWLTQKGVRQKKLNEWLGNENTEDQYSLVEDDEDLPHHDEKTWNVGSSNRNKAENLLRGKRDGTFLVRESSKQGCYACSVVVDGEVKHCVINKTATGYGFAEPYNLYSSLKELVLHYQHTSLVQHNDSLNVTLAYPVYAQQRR
Protocol: SPR binding experiments were collected on a Biacore 8K Instrument (Cytiva). Neutravidin (Pierce) was amine coupled to the carboxymethylated dextran surface of a CM5 sensor chip (Cytiva) using standard amine coupling chemistry. The CM5 chip surface was first activated with 0.1 M N-hydroxy succinimide and 0.4 M N-ethyl-N′-(3-dimethyl aminopropyl) carbodiimide at a flow rate of 20 μL/min using 20 mM HEPES pH 7.4, 150 mM NaCl as the running buffer. Next, neutravidin was diluted to 20 μg/mL in 10 mM sodium acetate (pH 4.5) and injected on all flow cells until a density of approximately 10,000 response units (RU) was immobilized. Activated amine groups were quenched with an injection of 1 M ethanolamine (pH 8.0). 300-500 RU of avi-tagged full length PI3Kα was captured on all flow cells in 20 mM HEPES pH 7.4, 150 mM NaCl, 5 mM MgCl2, 1 mM TCEP, 0.05% tween 20, 5% DMSO buffer. KRAS-Q25A at 20 μM was mixed with 8 concentrations of compound (50 nM-100 μM) and injected over the full-length PI3Kα at 30 μL/min and 25° C. Steady-state levels of KRAS binding were recorded and fit with a 4-parameter inhibition model to determine the IC50 values.

[2] = target: Cys242 in human PIK3CA (157-299) (Homo sapiens (Human), UniProt P42336); assay: Covalent modification assay using MALDI-TOF MS; assay type: biochemical; conditions: 4 h reaction time point; 1 μM protein target, 1:5 protein to compound ratio (compounds 853-1279)
Chain of Cys242 in human PIK3CA (157-299) (P42336 157-299): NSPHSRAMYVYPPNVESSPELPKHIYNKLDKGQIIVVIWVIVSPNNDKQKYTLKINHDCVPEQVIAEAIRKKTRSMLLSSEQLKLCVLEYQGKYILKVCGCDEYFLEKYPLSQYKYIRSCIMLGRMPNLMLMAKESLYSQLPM
Outline: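 PIK3CA (157-299), 3.33 or 1 μM in 20 mM HEPES, 150 mM NaCl, 2 mM MgCl2, pH 7.3, was incubated with compound at room temperature in the dark for 15 min, 30 min, 2 h or 4 h. Linear MALDI-TOF read-out; % modification = adduct peak height over summed heights of all protein species.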

pAKT in BT474 cells = assay: Cell-based pAKT HTRF assay in BT474 cells; conditions: BT474 cells, 4 hr incubation, Compounds 1000-1279, read-out: pAKT inhibition IC50 in BT474 cells
Outline: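 Cells grown in DMEM with 10% FBS were exposed to compounds for 4 hr in 0.25% DMSO, using a 9-point, 3-fold dilution series that starts at 3 μM. Lysates were incubated with d2 and Eu Cryptate antibodies for 4–24 h at room temperature, and HTRF was read at 615 nm emission.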

Row | Compound | IC50 [1] [nM] | IC50 (pAKT in BT474 cells) [nM] | IC50 (pAKT in BT474 cells; Homo sapiens, BT-474) [nM] | % of modification [2]
1 | COCCOc1ccccc1-c1c(-c2ccccc2)nc(-c2ccc3c(c2)CCNC3)c2ccsc12 [Compound 4, 7-[2-(2-methoxyethoxy)phenyl]-6-phenyl-4-(1,2,3,4-tetrahydroisoquinolin-6-yl)thieno[3,2-c]pyridine] | 5000 to 25000 |  |  | 
2 | C=CC(=O)N1CCn2nc(-c3nc(-c4ccc5c(cnn5C)c4)c4ccsc4c3-c3c(F)cc(F)cc3OCCOC(F)F)cc2C1C (stereo not drawn) [Compound 1234] |  | < 100 |  | A (percent of modification of PIK3CA protein ≥75%)
3 | CC=C(C#N)C(=O)N1CCn2nc(-c3nc(-c4ccc5c(cnn5C)c4)c4ccsc4c3-c3c(F)cc(F)cc3OCCOC)cc2C1C (stereo not drawn) [Compound 1239] |  | > 1000 |  | C (25%≤percent of modification <50%)
4 | C=CC(=O)N1CCn2nc(-c3nc(-c4cnc5c(c4)CN(C)CC5)c4c(c3-c3c(F)cc(F)cc3OCCOC)CCC4)cc2C1C (stereo not drawn) [Compound 1243] |  | < 100 |  | A (percent of modification of PIK3CA protein ≥75%)
5 | C=CC(=O)N1CCn2nc(-c3nc(-c4ccc5c(c4)CN(C)CC5)c4c(c3-c3c(F)cc(F)cc3OCCOC)CCC4)cc2C1C (stereo not drawn) [Compound 1244] |  | < 100 |  | A (percent of modification of PIK3CA protein ≥75%)
6 | C=CC(=O)N1CCn2nc(-c3nc(-c4cncc(CCN(C)C)c4)c4ccsc4c3-c3c(F)cc(F)cc3OCCOC)cc2C1C (stereo not drawn) [Compound 1245] |  | < 100 |  | A (percent of modification of PIK3CA protein ≥75%)
7 | C=CC(=O)N1Cc2cc(-c3nc(C45CC(CNC(C)=O)(C4)C5)c4ccsc4c3-c3c(F)cc(F)cc3OCCOC)nn2CC1C (stereo not drawn) [Compound 1246] |  | 100 to 1000 |  | B (50%<percent of modification <75%)
8 | C=CC(=O)N1CCn2nc(-c3nc(-c4ccc5c(c4)CN(CC(F)F)CC5)c4ccsc4c3-c3c(F)cc(F)cc3OCCO)cc2C1C (stereo not drawn) [Compound 1249] |  | < 100 |  | A (percent of modification of PIK3CA protein ≥75%)
9 | C=CC(=O)N1CCn2nc(-c3nc(-c4ccc5c(c4)CN(CC(F)(F)F)CC5)c4ccsc4c3-c3c(F)cc(F)cc3OCCO)cc2C1C (stereo not drawn) [Compound 1250] |  | < 100 |  | A (percent of modification of PIK3CA protein ≥75%)
10 | C=CC(=O)N1CCc2ncc(-c3nc(-c4ccc5c(cnn5C)c4)c4sccc4c3-c3c(F)cc(F)cc3OCCOC)cc2C1 [Compound 1261, 1-[3-[4-[2,4-difluoro-6-(2-methoxyethoxy)phenyl]-7-(1-methylindazol-5-yl)thieno[2,3-c]pyridin-5-yl]-7,8-dihydro-5H-1,6-naphthyridin-6-yl]prop-2-en-1-one] |  |  | < 100 | A (percent of modification of PIK3CA protein ≥75%)
11 | C=CC(=O)N1CCc2ccc(-c3nc(-c4ccc5c(c4)CN(CCO)CC5(F)F)c4ccsc4c3-c3c(F)cc(F)cc3OCCOC)cc2C1 [Compound 1273] |  | > 1000 |  | D (percent of modification <25%)
12 | C=CC(=O)N1CCn2nc(-c3nc(-c4ccc5c(c4)CN(C)CC5(F)F)c4ccsc4c3-c3c(F)cc(F)cc3OC)cc2C1C (stereo not drawn) [Compound 1275] |  | < 100 |  | A (percent of modification of PIK3CA protein ≥75%)
13 | C=CC(=O)N1CCc2nc(-c3nc(-c4ccc5c(c4)CN(C)CC5(F)F)c4ccsc4c3-c3c(F)cc(F)cc3OCCOC)sc2C1 [Compound 1276] |  | 100 to 1000 |  | A (percent of modification of PIK3CA protein ≥75%)
14 | C=CC(=O)N1CCc2ncc(-c3nc(-c4ccc5c(c4)CN(CCOC)CC5(F)F)c4ccsc4c3-c3c(F)cc(F)cc3OCCOC)cc2C1 [Compound 1278] |  | < 100 |  | A (percent of modification of PIK3CA protein ≥75%)
15 | COCCOc1ccccc1-c1c(-c2cccc(C#N)c2)nc(-c2ccc3c(c2)CCNC3)c2c1CCC2 [compound 2] | > 25000 |  |  | 
16 | COCCOc1ccccc1-c1c(-c2ccccc2)nc(-c2ccc3c(c2)CCNC3)c2c1CCC2 [compound 3] | > 25000 |  |  | 
17 | COCCOc1ccccc1-c1c(-c2ccc(=O)n(C)c2)nc(-c2ccc3c(c2)CCNC3)c2c1CCC2 [compound 5] | > 25000 |  |  | 
18 | COCCOc1cc(F)ccc1-c1c(-c2nc3ccc(C(C)C)cc3[nH]2)nc(-c2ccc3c(c2)CCNC3)c2ccsc12 [compound 20] | > 25000 |  |  | 
19 | COCCOc1cc(F)ccc1-c1c(-c2cnn(CCNC(=O)C(C)C)c2)nc(-c2ccc3c(c2)CCNC3)c2ccsc12 [compound 21] | 5000 to 25000 |  |  | 
20 | COCCOc1cc(F)ccc1-c1c(-c2cnn(CC(=O)NC(C)(C)C)c2)nc(-c2ccc3c(c2)CCNC3)c2ccsc12 [compound 24] | < 5000 |  |  | 
21 | COCCOc1cc(F)ccc1-c1c(-c2ccc(=O)n(C(C)C)c2)nc(-c2ccc3c(c2)CCNC3)c2ccsc12 [compound 26] | < 5000 |  |  | 
22 | COCCOc1cc(F)ccc1-c1c(-c2c[nH]cn2)nc(-c2ccc3c(c2)CCNC3)c2ccsc12 [compound 34] | 5000 to 25000 |  |  | 

Continued, in another order:

Row | IC50 [1] [nM] | IC50 (pAKT in BT474 cells) [nM] | IC50 (pAKT in BT474 cells; Homo sapiens, BT-474) [nM] | Compound | % of modification [2]
23 |  | 100 to 1000 |  | COCCOc1cc(F)cc(F)c1-c1c(-c2cc3n(n2)CCN(C#N)C3C)nc(-c2ccc3c(cnn3C)c2)c2ccsc12 (stereo not drawn) [Compound 1233] | D (percent of modification <25%)
24 |  | < 100 |  | C=CC(=O)N1CCn2nc(-c3nc(-c4ccc(C5CCCN5C)cc4)c4ccsc4c3-c3c(F)cc(F)cc3OCCOC)cc2C1C (stereo not drawn) [Compound 1237] | A (percent of modification of PIK3CA protein ≥75%)
25 |  | < 100 |  | C=CC(=O)N1CCn2nc(-c3nc(-c4ccc5c(cnn5C)c4)c4ccsc4c3-c3c(F)cc(F)cc3OC3CC(F)(F)C3)cc2C1C (stereo not drawn) [Compound 1240] | A (percent of modification of PIK3CA protein ≥75%)
26 |  | < 100 |  | C=CC(=O)N1CCn2nc(-c3nc(-c4cnc5c(c4)CN(CCOC)CC5(F)F)c4ccsc4c3-c3c(F)cc(F)cc3OCCOC)cc2C1C (stereo not drawn) [Compound 1242] | A (percent of modification of PIK3CA protein ≥75%)
27 |  | 100 to 1000 |  | C=CC(=O)N1CCn2nc(-c3nc(-c4ccc5c(c4)CN(CC(F)F)CC5)c4ccsc4c3-c3c(F)cc(F)cc3OCCOC)cc2C1C (stereo not drawn) [Compound 1248] | A (percent of modification of PIK3CA protein ≥75%)
28 |  | < 100 |  | C=CC(=O)N1CCn2nc(-c3nc(-c4ccc5c(c4)CN(CC(F)(F)F)CC5)c4ccsc4c3-c3c(F)cc(F)cc3OCCOC)cc2C1C (stereo not drawn) [Compound 1252] | A (percent of modification of PIK3CA protein ≥75%)
29 |  | 100 to 1000 |  | C=CC(=O)N1CCc2nc(-c3nc(-c4ccc5c(c4)CCN(CC(F)F)CC5)c4ccsc4c3-c3c(F)cc(F)cc3OCCOC)sc2C1 [Compound 1270] | A (percent of modification of PIK3CA protein ≥75%)
30 |  | > 1000 |  | C=CC(=O)N1CCc2ccc(-c3nc(-c4ccc5c(c4)CCN(CC(F)F)CC5)c4ccsc4c3-c3c(F)cc(F)cc3OCCOC)cc2C1 [Compound 1271] | D (percent of modification <25%)
31 |  | > 1000 |  | C=CC(=O)N1CCc2ccc(-c3nc(-c4ccc5c(c4)CN(C)CC5(F)F)c4ccsc4c3-c3c(F)cc(F)cc3OCCOC)cc2C1 [Compound 1272] | D (percent of modification <25%)
32 |  | < 100 |  | C=CC(=O)N1CCc2ncc(-c3nc(-c4ccc5c(c4)CN(C)CC5(F)F)c4ccsc4c3-c3c(F)cc(F)cc3OCCOC)cc2C1 [Compound 1274] | A (percent of modification of PIK3CA protein ≥75%)
33 |  | > 1000 |  | C=CC(=O)N1CCc2ccc(-c3nc(-c4ccc5c(c4)CN(CCOC)CC5(F)F)c4ccsc4c3-c3c(F)cc(F)cc3OCCOC)cc2C1 [Compound 1277] | D (percent of modification <25%)
34 |  | < 100 |  | C=CC(=O)N1CCc2ncc(-c3nc(-c4cnc5c(c4)CN(C)CC5(F)F)c4ccsc4c3-c3c(F)cc(F)cc3OCCOC)cc2C1 [Compound 1279] | A (percent of modification of PIK3CA protein ≥75%)
35 | 5000 to 25000 |  |  | COCCOc1cc(F)ccc1-c1c(-c2cnn(CC(=O)N3CCCC3)c2)nc(-c2ccc3c(c2)CCNC3)c2ccsc12 [compound 25] | 
36 | < 5000 |  |  | COCCOc1cc(F)ccc1-c1c(-c2cccc(CNC(=O)C3CCCC3)c2)nc(-c2ccc3c(c2)CCNC3)c2ccsc12 [compound 27] | 
37 | 5000 to 25000 |  |  | COCCOc1cc(F)ccc1-c1c(-c2cnn(CCC(=O)NC(C)(C)C)c2)nc(-c2ccc3c(c2)CCNC3=O)c2ccsc12 [compound 37] | 
38 | 5000 to 25000 |  |  | COCCOc1cc(F)ccc1-c1c(-c2nc(CO)cs2)nc(-c2ccc3c(c2)CCNC3)c2ccsc12 [compound 39] | 
